According to patent publication US12319913B2, “5-halouracil-modified microRNAs and their use in the treatment of cancer” (The Research Foundation for The State University of New York, priority 2018, dated 2025):
[5FU] = 5-fluorouracil base replacing uracil

What was measured:
[1] = tested on: acute lymphocytic leukemia cell line (REH); assay: Cell proliferation, REH; format: cell-based, human; conditions: 50 nM, 25 nM, 12.5 nM, 6.25 nM, and 3.125 nM
[2] = tested on: MDA-MB-231 triple negative breast cancer cells; assay: MTT cell proliferation, MDA-MB-231, with or without oligofectamine; format: cell-based, human
Protocol: (§1) For transfections, 1×10^5 cells were plated in six-well plates and transfected with 100 nM of control non-specific miRNA (Thermo Fischer), a modified microRNA, or exogenous native microRNA after 24 hours using Oligofectamine (Thermo Fischer) following the manufacturer's protocols. For reagent free transfection, cells were plated in 6 well plates at (1×10^5) cells per well. Twenty-four hours later 100 pmol miRNA (Control, miR-15a, Mimic-1) were diluted in Optimem (Thermo Fischer) and added to the plate. Media was changed after 24 hours. Media was supplemented with 10% fetal bovine serum (Thermo Fischer). Briefly, cells were cultured in growth media (DMEM/F12 supplemented with B27, 10 ng/mL bFGF, and 20 ng/mL EGF (Life Technologies) in ultra-low attachment flasks) for up to 6 days. The spheroid cells were maintained by collection through gentle centrifugation, dissociation to single cells and replating.
Furthermore, to test whether or not the modified microRNAs of the present disclosure can be delivered directly to cells and taken up by the cancer cells without the use of transfer agents or vehicles (i.e., oligofectamine), MDA-MB-231 triple negative breast cancer cells were transfected with miR-NC (negative control), exogenous unmodified miR-200b or miR-489, 5-FU-miR-200b or modified miR-489 by using oligofectamine or without delivery vehicle. As shown in FIGS. 17A-17B and 20A, the effects of expression of the exemplary modified miRs tested on breast cancer cell proliferation were monitored by MTT assay for 6 days upon transfection or incubation.

[3] = tested on: SKBR3 breast cancer cells; assay: Cell proliferation, SKBR3; format: cell-based, human; conditions: SKBR3, compared to negative controls
Protocol: as §1
(§2) Cell proliferation assay: Twenty-four hours after transfection, cells were seeded in 96-well plates at a density of 2000 cells per well. The cell proliferation assay was performed on days 1 to 5 by incubating 10 μl WST-1 (Roche Applied Science, Mannheim, Germany) in the culture medium for 1 h and reading the absorbance at 450 and 630 nm. The cell proliferation rate was calculated by subtracting the […]. Experiments for the cell proliferation assay were performed at least three times. The O.D. was calculated by subtracting the absorbance at 630 nm from that at 450 nm. Proliferation experiments were performed three times.

[4] = tested on: AsPC-1 pancreatic cancer cells; assay: Cell proliferation, AsPC-1; format: cell-based, human; conditions: APSC-1; 50 nM, 25 nM, 12.5 nM, 6.25 nM, and 3.125 nM
Protocol: as §1, with “For transfections, 1×10^5 cells were plated in six-well plates and transfected with 100 nM of control non-specific miRNA (Thermo Fischer), a modified microRNA, or exogenous native microRNA after 24 hours using Oligofectamine (Thermo Fischer) following the manufacturer's protocols.” left out
as §2

[5] = tested on: Hs766T pancreatic cancer cells; assay: Cell proliferation, Hs766T; format: cell-based, human; conditions: compared to negative controls
Protocol: as §1, §2

[6] = tested on: MDA-MB-231 breast cancer cells; assay: Cell cycle analysis, MDA-MB-231 breast cancer cells; format: cell-based, human; conditions: compared to native exogenous microRNAs or NC
Protocol: (§3) Cell cycle analysis: Twenty-four hours after transfection, cells were harvested and resuspended at 0.5 to 1×10^6 cells/mL in modified Krishan's buffer supplemented with 0.02 mg/mL RNase H and 0.05 mg/mL propidium iodide. Stained cells were detected by flow cytometry and results were analyzed with Modfit LT™ software. The experiments for cell cycle analysis were performed at least three times.

[7] = tested on: Panc-1 pancreatic cancer cells; assay: Cell proliferation, Panc-1; format: cell-based, human; conditions: PANC-1; 50 nM, 25 nM, 12.5 nM, 6.25 nM, and 3.125 nM
Protocol: as §1, with “For transfections, 1×10^5 cells were plated in six-well plates and transfected with 100 nM of control non-specific miRNA (Thermo Fischer), a modified microRNA, or exogenous native microRNA after 24 hours using Oligofectamine (Thermo Fischer) following the manufacturer's protocols.” left out
as §2

[8] = tested on: fibronectin; assay: Western blot of miR-200b target in breast cancer cells; format: cell-based, human; conditions: compared to exogenous native miR-200b and negative control
Protocol: (§4) Western immunoblot analysis: Forty-eight hours after transfection, equal amounts of protein (15 μg) extracted from cells lysed in RIPA buffer with protease inhibitor (Sigma) and were separated on 10%-12% sodium dodecyl sulfate-polyacrylamide gels using standard procedures. The primary antibodies used for the analysis were rabbit anti-YAP1 monoclonal antibody (1:10000) (Cell Signaling Technologies), anti-DLCK1 (1:500) (Abcam), anti-BCL2 (1:500) (NeoMarkers), anti-MDC1 (1:500), anti-SUZ12 (1:500), anti-pChk-1 (1:500), anti beta-actin (1:500), anti-BMI-1 (1:10000) (Cell Signaling Technologies), mouse anti-human TS antibody (1:500), anti-α-tubulin (1:50000) (Santa Cruz Biotech Inc.), anti-GAPDH (1:100000) (Santa Cruz Biotech Inc.), anti-E2F3 (1:500) (Santa Cruz Biotech Inc.), Horseradish peroxidase-conjugated antibodies against mouse or rabbit (1:5000, Santa Cruz Biotech Inc.) were used as the secondary antibodies. Protein bands were visualized with autoradiography film using SuperSignal West Pico Chemiluminescent Substrate (Thermo Fischer). Western blot density was quantified using Image J software.

[9] = tested on: AGS stomach cancer cells; assay: Cell proliferation, AGS; format: cell-based, human; conditions: compared to negative controls
Protocol: as §1, §2

[10] = tested on: acute lymphocytic leukemia cell line (REH); assay: Cell proliferation, REH; format: cell-based, human; conditions: compared to negative controls
Protocol: as §1, §2

[11] = tested on: A549 lung cancer cells; assay: Cell proliferation, A549; format: cell-based, human; conditions: A549, compared to negative controls
Protocol: as §1, §2

[12] = target: T1, TS-FdUMP (Homo sapiens, UniProt P04818); assay: Western blot of TS / TS-FdUMP in MDA-MB-231 cells; format: cell-based; conditions: MDA-MB-231 cell line
T1 construct: endogenous in cells
Protocol: as §4

[13] = tested on: REH leukemia cells; assay: Cell cycle analysis, REH leukemia cells; format: cell-based, human; conditions: 50 nM, compared to the control
Protocol: as §3

[14] = tested on: HCT-116 cells; assay: Cell cycle analysis by flow cytometry, colon cancer cells; format: cell-based, human; conditions: colon cancer cells, compared to the control
Protocol: as §3

[15] = tested on: YAP1, BMI1, DCLK1 and BCL2; assay: Western blot of miR-15a targets in HCT-116 colon cancer stem cells; format: cell-based, human; conditions: three days following transfection
Protocol: as §4, with “[…],” for “Forty-eight hours after transfection,”, “software. […]” for “software.”

[16] = tested on: colon cancer stem cells; assay: Anchorage-independent colony formation (soft agar); format: cell-based, human; conditions: soft agar / Matrigel matrix
Protocol: Anchorage-independent proliferation was studied to determine cancer cell colony forming ability. Cancer cells were trypsinized and counted and a total of 1×10^5 cells per well were transfected in 6-well plates with 25 nM modified microRNA or native miRs or a negative control miRNA with oligofectamine, and 6 hours after transfection, cells were recounted. A total of 20,000 cells in 0.35% agar (Bacto Agar; Becton Dickinson) were layered on top of 1 mL of a solidified 0.6% agar layer in a 35-mm dish. Growth media with B27, 10 ng/mL bFGF, and 20 ng/mL EGF were included in both layers. After 2 weeks of incubation, colonies more than […] in diameter were counted.

[17] = tested on: HCT116 colon cancer cells; assay: WST-1 cell proliferation assay, HCT116; format: cell-based, human; conditions: HCT-116, WST-1, six days after transfection
Protocol: as §1, with “1×10^5 cells were plated in six-well plates and transfected with 100 nM of control non-specific miRNA (Thermo Fischer), a modified microRNA, or exogenous native microRNA after 24 hours using Oligofectamine” left out
as §2

T1 sequence (P04818 2-313 limits assumed): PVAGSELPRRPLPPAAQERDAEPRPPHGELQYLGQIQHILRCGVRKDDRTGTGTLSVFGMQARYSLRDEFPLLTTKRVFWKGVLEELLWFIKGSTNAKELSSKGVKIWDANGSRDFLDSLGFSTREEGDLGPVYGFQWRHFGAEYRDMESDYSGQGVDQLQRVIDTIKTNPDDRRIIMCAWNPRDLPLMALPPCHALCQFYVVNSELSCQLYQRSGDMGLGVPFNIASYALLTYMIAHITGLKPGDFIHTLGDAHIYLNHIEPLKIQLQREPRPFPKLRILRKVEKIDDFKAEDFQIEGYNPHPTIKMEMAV

Substance | leukemia cancer cell proliferation, dose dependence [1] | cell proliferation without delivery vehicle (no oligofectamine) ([2]; MDA-MB-231, MTT assay) | cell proliferation in the presence of oligofectamine ([2]; MDA-MB-231, MTT assay for 6 days, vs miR-NC) | breast cancer cell proliferation [3] | cell proliferation, dose dependence [4] | pancreatic cancer cell proliferation [5] | sub G1 and G1/S ratio [6] | cell proliferation, dose dependence [7] | fibronectin (miR-200b target gene) expression [8] | gastric cancer cell proliferation [9] | leukemia cancer cell proliferation [10] | lung cancer cell proliferation [11] | TS-FdUMP break down [12] | G1/S ratio [13] | increase in the G1/S ratio [14] | protein levels of YAP1, BMI1, DCLK1 and BCL2 [15] | colony / sphere formation [16] | decrease of cell proliferation compared to control [17]
U^FAAU^FACU^FGCCU^FGGU^FAAU^FGAU^FGA (UAAUACUGCCUGGUAAUGAUGA; RNA, [5FU] at 1, 4, 7, 11, 14, 17, 20, backbone not given here) [modified miR-200b, miR-200b in which all (7) U bases are replaced by 5-fluorouracil] | inhibited in a dose dependent manner | effectively reduced cell proliferation | dramatically reduced the cell growth from day 3 | inhibited | inhibited in a dose dependent manner | inhibited | significantly increase | inhibited in a dose dependent manner | reduction of fibronectin | inhibited | inhibited | inhibited | breaks down TS-FdUMP |  |  |  |  | 
U^FGAGGU^FAGU^FAGGU^FU^FGU^FAU^FAGU^FU^F [modified miR-let-7] | inhibited in a dose dependent manner |  |  | inhibited | inhibited in a dose dependent manner | inhibited |  | inhibited in a dose dependent manner |  | inhibited | inhibited | inhibited |  | significant fold increase in the G1/S ratio |  |  |  | 
GU^FCCAGU^FU^FU^FU^FCCCAGGAAU^FCCCU^F (GUCCAGUUUUCCCAGGAAUCCCU; RNA, [5FU] at 2, 7, 8, 9, 10, 19, 23, backbone not given here) [modified miR-145] | inhibited in a dose dependent manner |  |  | inhibited | inhibited in a dose dependent manner | inhibited |  | inhibited in a dose dependent manner |  | inhibited | inhibited | inhibited |  | significant fold increase in the G1/S ratio |  |  |  | 
UAGCAGCACAUAAUGGUUUGUG (RNA, backbone not given here; listed as Homo sapiens) [unmodified miR-15a, reference compound] |  |  |  |  |  |  |  |  |  |  |  |  |  |  | about 3 fold | reduced | very few colonies | 53%
